Experimental data reported in patent US20190352288A1, “MATRIX METALLOPROTEINASE (MMP) INHIBITORS AND METHODS OF USE THEREOF” (Foresee Pharmaceuticals Co., Ltd., priority 2018, published 2019).

Target: T1, recombinant human MMP-12 catalytic domain (Homo sapiens, UniProt P39900)
T1 construct: recombinant human MMP-12 catalytic domain; purchased Enzo BML-SE138
Assay: MMP-12 inhibitory assay (fluorogenic substrate cleavage)
Type: biochemical
Details: readout at 30 minutes, 37° C., Table 1
Protocol: The inhibitory effect of compounds on the rate of cleaving fluorogenic MMP substrate (Enzo, BML-P128) by recombinant human MMP-12 catalytic domain (Enzo, BML-SE138) was carried out by methods known in the art. Briefly, to each well of a 96-well black opaque plate, all the reagents were sequentially added by pipetting, and the final reaction contained 4 nM of recombinant human MMP-12 catalytic domain, 4 μM of fluorogenic MMP substrate, and various concentrations (0.15 nM to 10,000 nM) of tested compound dilutions in HEPES buffer (pH 7.5) containing 10 mM of CaCl2), 0.01% Brij® 35 (polyoxyethylene (23) lauryl ether), and 0.1 mg/ml of BSA.
The enzyme and compounds were pre-incubated on a shaker to mix in wells. After an hour of mixing, fluorogenic substrate was added to each well. Reaction without enzyme was used as a blank control in the plate. The plate was then fed into a plate reader to measure fluorescence intensity at Excitation/Emission wavelengths of 340 nm/440 nm every 10 mins for at least 1 hour at 37° C. The IC50 of each compound in MMP-12 inhibition was determined by using a readout obtained at time point 30 minutes.

T1 sequence (P39900 106-268 limits assumed): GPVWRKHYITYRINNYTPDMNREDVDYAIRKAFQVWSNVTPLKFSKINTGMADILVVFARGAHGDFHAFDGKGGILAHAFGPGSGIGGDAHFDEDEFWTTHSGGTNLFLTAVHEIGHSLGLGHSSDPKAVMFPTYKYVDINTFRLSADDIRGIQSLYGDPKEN

Compound | IC50 [nM]
CNC(=O)c1cccc(COc2ccc(Sc3ccncc3C3NC(=O)NC3=O)cc2)c1 (stereo not shown) [PC-29] | 10 to 100
Cc1cccc(COc2ccc(Sc3ncn(C)c3C3NC(=O)NC3=O)cc2)c1 (stereo not shown) [OC-6] | 10 to 100
CC(C)[C@H](N)C(=O)OCc1cccc(COc2ccc(Sc3ccncc3C3NC(=O)NC3=O)cc2)c1 (stereo partly shown) [PC-11] | 10 to 100
Cc1cccc(COc2ccc([S+]([O-])c3ccccc3C3NC(=O)NC3=O)cc2)c1 (stereo not shown) [OC-2] | 100 to 1000
Cc1cccc(COc2ccc(Sc3ncccc3C3NC(=O)NC3=O)cc2)c1 (stereo not shown) [PC-1] | 10 to 100
Cc1cc(COc2ccc(Sc3c(C4NC(=O)NC4=O)ncn3C)cc2)ccn1 (stereo not shown) [OC-14] | 10 to 100
COc1cc(COc2ccc(Sc3ccncc3C3NC(=O)NC3=O)cc2)ccn1 (stereo not shown) [PC-30] | 10 to 100
Cc1cccc(COc2ccc(Oc3ccncc3C3NC(=O)NC3=O)cc2)c1 (stereo not shown) [PC-26] | 10 to 100
Cc1cccc(COc2ccc([S+]([O-])c3ccncc3C3NC(=O)NC3=O)cc2)c1 (stereo not shown) [PC-5] | 100 to 1000
Cc1cncc(COc2ccc(Sc3ccncc3C3NC(=O)NC3=O)cc2)c1 (stereo not shown) [PC-17] | 100 to 1000
Cc1cccc(COc2ccc(Sc3ccccc3C3NC(=O)NC3=O)cc2)c1 (stereo not shown) [OC-1] | 10 to 100
COc1ccc(CN2C(=O)NC(c3cnccc3Sc3ccc(OCc4ccnc(C)c4)cc3)C2=O)cc1 (stereo not shown) [PC-55] | 100 to 1000
Cc1cc(COc2ccc(Sc3ccncc3C3NC(=O)N(C)C3=O)cc2)ccn1 (stereo not shown) [PC-41] | 100 to 1000
CCOc1cccc(COc2ccc(Sc3ccsc3C3NC(=O)NC3=O)cc2)c1 (stereo not shown) [TC2] | 100 to 1000
Cc1cc(CCc2ccc(Oc3ccncc3C3NC(=O)NC3=O)cc2)ccn1 (stereo not shown) [PC-62] | 100 to 1000
Cc1cccc(COc2ccc(Sc3cnccc3C3NC(=O)NC3=O)cc2)c1 (stereo not shown) [PC-4] | 10 to 100
Cc1cc(COc2ccc(Sc3ccncc3C3NC(=O)NC3=O)cc2Cl)ccn1 (stereo not shown) [PC-49] | 10 to 100
NC(=O)c1cncc(COc2ccc(Sc3ccncc3C3NC(=O)NC3=O)cc2)c1 (stereo not shown) [PC-34] | 10 to 100
O=C1NC(=O)C(c2cnccc2Sc2ccc(OCc3ccc(CO)cc3)cc2)N1 (stereo not shown) [PC-7] | 10 to 100
CNC(=O)c1cncc(COc2ccc(Sc3ccncc3C3NC(=O)NC3=O)cc2)c1 (stereo not shown) [PC-36] | 100 to 1000
O=C1NC(=O)C(c2cnccc2Sc2ccc(OCc3ccccc3CO)cc2)N1 (stereo not shown) [PC-9] | 10 to 100
Cc1cc(OCc2ccc(Sc3ccncc3C3NC(=O)NC3=O)cc2)ccn1 (stereo not shown) [PC-44] | 10 to 100
Cc1cccc(COc2ccc(Sc3ccncc3C3NC(=O)NC3=O)cc2)c1 (stereo not shown) [PC-2] | 10 to 100
O=C1NC(=O)C(c2cnccc2Oc2ccc(OCc3cccc(C(=O)O)c3)cc2)N1 (stereo not shown) [PC-23] | > 1000
Cc1cncc(COc2ccc(Sc3cnccc3C3NC(=O)NC3=O)cc2)c1 (stereo not shown) [PC-19] | 100 to 1000
NC(=O)c1ccc(COc2ccc(Sc3ccncc3C3NC(=O)NC3=O)cc2)cc1 (stereo not shown) [PC-37] | 100 to 1000
O=C1NC(=O)C(c2cnccc2Sc2ccc(OCc3ccnc(O)c3)cc2)N1 (stereo not shown) [PC-35] | 100 to 1000
Cc1cccc(COc2ccc(Sc3cccnc3C3NC(=O)NC3=O)cc2)c1 (stereo not shown) [PC-3] | 10 to 100
